These are literature values, as cited in patent US20190346442A1, “IMPROVED HLA EPITOPE PREDICTION” (The Broad Institute, Inc., priority 2016, published 2019).

Series [1] deals with advanced hormone refractory prostate cancer patients. Particulars: personalized vaccination combined with a low dose of estramustine.
Series [2] has as its system ovarian carcinoma patients. Particulars: poly-ICLC in combination with NY-ESO-1 peptide vaccine, in addition to Montanide; phase 1.
Another series deals with healthy human volunteers. As to conditions: 8 volunteers, one single s.c. administration, versus 4 subjects receiving placebo; whole blood.

With `C[C@]12CC[C@@H]3c4ccc(OC(=O)N(CCCl)CCCl)cc4CC[C@H]3[C@@H]1CC[C@@H]2O` [estramustine], the “patients with >50% decrease in serum prostate specific antigen (PSA)” value in series [1] is 54%.

For the molecule “Polyinosinic-Polycytidylic Acid-poly-L-lysine Carboxymethylcellulose [poly-ICLC]”, the “patients showing induction of CD4+ and CD8+ T cell, as well as antibody responses to the peptide” value in series [2] is given as > 90%. For the same molecule, the “differential expression of genes versus placebo” value in the series with healthy human volunteers is recorded as “up to 212 genes”.
